In brackets after ≈: the same amount, converted by molar mass.
Tests used:
Enterococcus from fish = experiment: Antibacterial activity (IC), agar as in Example 8, media with 1.5% NaCl, 25°C (Example 20, Tables 53-55); format: cell-based; conditions: for MIC: Enterococcus Seriolicida SE94-002
Method in brief: (§1)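 Growth inhibition was scored by turbidity after culture at 25°C, with IC bands set from 2-fold-dilution MIC-equivalents. Samples were tested at final 100, 10 and 1 µg/ml in Mueller-Hinton agar with 1.5% NaCl, seeded with 10^6 CFU/ml of the fish isolates.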

Pasteurella from fish = experiment: as above; format: cell-based; conditions: for MIC: Pasteurella piscicida KP94-02
Method in brief: as §1

[1] = tested on: Streptococcus aureus (TI-1); experiment: Antibacterial activity (IC), agar as in Example 8 (Example 16, Table 49); format: cell-based; conditions: 18 h
Method in brief: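 Compound at final 100, 10 or 1 µg/ml in Mueller-Hinton agar, inoculated with […] aureus (TI-1) at 10^6 CFU/ml and cultured 37°C for 18 h. Inhibition read from medium turbidity; IC given as 100-10, 10-1 or ≤1 µg/ml ranges from 2-fold dilution.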

[2] = tested on: methicillin-resistant Staphylococcus aureus (MRSA) from humans; experiment: Antibacterial activity (IC), agar as in Example 8 (Example 19, Table 52); format: cell-based; conditions: 18 h
Method in brief: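 MRSA human isolate at 10^6 CFU/ml on Mueller-Hinton agar containing compound at 100, 10 or 1 µg/ml, grown 18 h at 37 °C. IC is the lowest tested level that inhibited growth, binned as ≤100, ≤10 or ≤1 µg/ml.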

[3] = tested on: Bordetella bronchiseptica (SM2-4); experiment: Antibacterial activity (IC), agar as in Example 8 (Example 18, Table 51); format: cell-based; conditions: 18 h
Experimental: (§2) The antibacterial action was evaluated by the inhibitory concentration (hereinafter abbreviated as IC) at which propagation of the bacteria cultured at 37°C for 18 hours was inhibited. Inhibition was determined by the turbidity of the medium. The expressions "IC≤100", "≤10", and "≤1" indicate that MIC-equivalent values obtained at the succesive […] dilution of the sample are 100-10 µg/ml, 10-1 µg/ml, and not more than 1 µg/ml, respectively. […] (In the subsequent Examples, the same rule applies correspondingly.) Table 39
(§3) A suitable amount of a sample was dissolved in dimethylsulfoxide (DMSO), after which the resulting solution was diluted with the same amount of sterilized distilled water to prepare a bulk sample of 1,000 µg/ml. Separately, a bacterial liquid for the test (methicillin-resistant Staphylococcus aureus (MRSA) isolated from humans) which had been cultured in Mueller-Hinton broth (product of DIFCO) was prepared and inoculated to a Mueller-Hinton agar (product of DIFCO) containing the sample so that the final inoculation amount of 10^6 CFU/ml was achieved. The final concentrations of the samples were 100, 10, and 1 µg/ml.
(§4) After culturing at 37°C for 18 hours, the antibacterial activity was evaluated in terms of IC in a manner similar to that described in Example 4.
(§5) In a manner similar to that described in Example 8, antibacterial activity of the invention compound was determined. The bacterium used for the test was Bordetella bronchiseptica (S1) and Bordetella bronchiseptica (SM2-4).

[4] = tested on: Bordetella bronchiseptica (S1); experiment: as above; format: cell-based; conditions: 18 h
Experimental: as §2, §3, §4, §5

[5] = tested on: Staphylococcus aureus (209-P); experiment: Antibacterial activity (IC), agar as in Example 8 (Example 15, Table 48); format: cell-based; conditions: 18 h
Method in brief: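 Samples in DMSO, diluted with sterile water, incorporated into Mueller-Hinton agar at 1, 10 and 100 µg/ml final. Bacteria seeded at 10^6 CFU/ml and grown 18 h at 37°C. Inhibition read as turbidity; values reported as IC ranges rather than exact MICs.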

[6] = tested on: Pasteurella multocida (Kobe-6); experiment: Antibacterial activity (IC), agar as in Example 8 (Example 17, Table 50); format: cell-based; conditions: 18 h, origin pig
Method in brief: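 Agar dilution on Mueller-Hinton agar with compound at 100, 10 and 1 µg/ml, inoculated at 10^6 CFU/ml with pig-origin strain Kobe-6. After 18 h at 37 °C, IC scored from turbidity and reported as a band (≤100, ≤10, ≤1 µg/ml).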

in vivo = conditions: mouse, oral administration, single dose, suspended in aqueous 0.5% CMC solution, male mice, observed for 14 days
Experimental: Acute toxicity (LD50) of a ketonitrile derivative of the present invention (Compound No. 4) was tested using male mice (Slc:ddY, 5 weeks old). To groups of each 5 mice, the compounds suspended in aqueous 0.5% CMC solution were forcibly dosed orally at a single time so that the final dosages of 707, 1,000, 1,414, and 2,000 mg/kg were attained. […] As a result, LD50 value under conditions of oral administration was estimated to be higher than 2,000 mg/kg. Thus, the compound was confirmed to be quite non-toxic.
To groups of each 5 mice, the compounds suspended in aqueous 0.5% CMC solution were forcibly dosed orally at a single time so that the final dosages of 500, 1,000, 1,500, and 2,000 mg/kg were attained. […] As a result, the LD50 value was estimated to be higher than 2,000 mg/kg. Thus, the compounds were confirmed to be quite non-toxic.

[7] = Absorption test, concentration of the compounds in serum by HPLC; format: in vivo; conditions: mouse, mice, 100 mg/kg body weight, oral administration, serum at 1, 3, 5 and 24 hours, read-out: time at which concentration in serum reached a maximum
Experimental: An absorption test was performed using ketonitrile derivatives of the present invention (Compound Nos. […] and 155) on mice by dosing the derivatives in amounts of 100 mg/kg body weight. One, three, five, and 24 hours after administration of the compounds, blood was harvested and serum was separated therefrom. The concentration of the compounds in serum was determined by HPLC. As a result, Compound No. 155 and Compound No. 101 reached a maximum in concentration after 1 hour and 3 hours of administration, respectively.

[8] = Enterococcus Seriolicida KG86050
[9] = Enterococcus Seriolicida MS89060
[10] = Enterococcus Seriolicida MS89064
[11] = Enterococcus Seriolicida MS89066
[12] = Enterococcus Seriolicida MS89068
[13] = Enterococcus Seriolicida SE94-001
[14] = Enterococcus Seriolicida SE94-003
[15] = Enterococcus Seriolicida SE94-004
[16] = Enterococcus Seriolicida SE94-005

| SMILES | IC (Enterococcus from fish; Enterococcus Seriolicida HI) [µg/mL] | IC (Enterococcus from fish; [8]) [µg/mL] | IC (Enterococcus from fish; [9]) [µg/mL] | IC (Enterococcus from fish; [10]) [µg/mL] | IC (Enterococcus from fish; [11]) [µg/mL] | IC (Enterococcus from fish; [12]) [µg/mL] | IC (Enterococcus from fish; [13]) [µg/mL] | MIC (Enterococcus from fish) [mg/L] | IC (Enterococcus from fish; [14]) [µg/mL] | IC (Enterococcus from fish; [15]) [µg/mL] | IC (Enterococcus from fish; [16]) [µg/mL] | MIC (Pasteurella from fish) [mg/L] | IC (Pasteurella from fish; Pasteurella piscicida KP94-04) | IC (Pasteurella from fish; Pasteurella piscicida KP94-05) | IC (Pasteurella from fish; Pasteurella piscicida KP94-06) | MIC [1] [mg/L] | MIC ([2]; MRSA strain 891179) [mg/L] | MIC ([2]; MRSA strain 891185) [mg/L] | MIC ([2]; MRSA strain 891187) [mg/L] | MIC ([2]; MRSA strain 891192) [mg/L] | further results |
| --- | --- | --- | --- | --- | --- | --- | --- | --- | --- | --- | --- | --- | --- | --- | --- | --- | --- | --- | --- | --- | --- |
| CC(Oc1cc(Oc2ccc(C(F)(F)F)cc2Cl)ccc1Cl)C(=O)C(C#N)c1cccc(Br)c1 (stereo not drawn) [Compound No. 155, 2-(3-bromophenyl)-4-[5-(2-chloro-4-trifluoromethylphenoxy)-2-chlorophenoxy]-3-oxopentanonitrile] | ≤ 1 | ≤ 1 | ≤ 1 | ≤ 1 | ≤ 1 | ≤ 1 | ≤ 1 | ≤ 1 | ≤ 1 | ≤ 1 | ≤ 1 | 10 to 100 (≈ 17.4 to 174 µM) | ≤100 (MIC-equivalent values obtained at the succesive 2-fold dilution of the sample are 100-10 µg/ml) | ≤100 (MIC-equivalent values obtained at the succesive 2-fold dilution of the sample are 100-10 µg/ml) | ≤100 (MIC-equivalent values obtained at the succesive 2-fold dilution of the sample are 100-10 µg/ml) | ≤ 1 | ≤ 1 | ≤ 1 | ≤ 1 | ≤ 1 | MIC ([2]; MRSA strain 900048): ≤ 1 mg/L; MIC ([2]; MRSA strain 900056): ≤ 1 mg/L; MIC [3]: 10 to 100 mg/L (≈ 17.4 to 174 µM); MIC [4]: 10 to 100 mg/L (≈ 17.4 to 174 µM); MIC [5]: ≤ 1 mg/L; MIC [6]: 10 to 100 mg/L (≈ 17.4 to 174 µM); LD50 at 336 h (in vivo): > 2000 mg/kg; Tmax [7]: 1 h |
| CC(Oc1cccc(Oc2ncc(C(F)(F)F)cc2Cl)c1)C(=O)C(C#N)c1ccc(Cl)c(Cl)c1 (stereo not drawn) [Compound No. 101, 4-[3-(3-chloro-5-trifluoromethyl-2-pyridyloxy)phenoxy]-2-(3,4-dichlorophenyl)-3-oxopentanonitrile] | – | – | – | – | – | – | – | – | – | – | – | – | – | – | – | – | – | – | – | – | Tmax [7]: 3 h |
| CC(Oc1cccc(Oc2ccc(C(F)(F)F)cc2Cl)c1)C(=O)C(C#N)c1ccc(Cl)c(Cl)c1 (stereo not drawn) [Compound No. 103, 4-[3-(2-chloro-4-trifluoromethylphenoxy)phenoxy]-2-(3,4-dichlorophenyl)-3-oxopentanonitrile] | ≤ 1 | ≤ 1 | ≤ 1 | ≤ 1 | ≤ 1 | ≤ 1 | ≤ 1 | ≤ 1 | ≤ 1 | ≤ 1 | ≤ 1 | 1 to 10 (≈ 1.89 to 18.9 µM) | ≤10 (10-1 µg/ml) | ≤10 (10-1 µg/ml) | ≤10 (10-1 µg/ml) | ≤ 1 | ≤ 1 | ≤ 1 | ≤ 1 | ≤ 1 | MIC ([2]; MRSA strain 900048): ≤ 1 mg/L; MIC ([2]; MRSA strain 900056): ≤ 1 mg/L; MIC [5]: ≤ 1 mg/L; MIC [6]: 1 to 10 mg/L (≈ 1.89 to 18.9 µM); LD50 at 336 h (in vivo): > 2000 mg/kg |

Reference: patent EP0768085A1, “ANTIBACTERIAL AGENT” (DAIICHI PHARMACEUTICAL CO., LTD., priority 1994, dated 1996)
